# According to ChEMBL document CHEMBL1123047, “Quantitative evaluation of the beta 2-adrenoceptor affinity of phenoxypropanolamines and phenylethanolamines” (J Med Chem, 1985):
# What was measured:
# [1] = target: Beta-2 adrenergic receptor (Bos taurus, UniProt Q28044); conditions: read-out: Kd app
# Description: (§2) Affinity for cow beta-2 adrenergic receptor by measuring displacement (-)-[3H]dihydroalprenolol (DHA)
# [2] = target: Beta-2 adrenergic receptor (Bos taurus) (UniProt Q28044)
# Description: as §2
# [3] = (§1) Partition coefficient (logP); format: physicochemical; conditions: octanol/water
# [4] = as §1; conditions: octanol/water
# Sequence of Beta-2 adrenergic receptor (Q28044 whole entry): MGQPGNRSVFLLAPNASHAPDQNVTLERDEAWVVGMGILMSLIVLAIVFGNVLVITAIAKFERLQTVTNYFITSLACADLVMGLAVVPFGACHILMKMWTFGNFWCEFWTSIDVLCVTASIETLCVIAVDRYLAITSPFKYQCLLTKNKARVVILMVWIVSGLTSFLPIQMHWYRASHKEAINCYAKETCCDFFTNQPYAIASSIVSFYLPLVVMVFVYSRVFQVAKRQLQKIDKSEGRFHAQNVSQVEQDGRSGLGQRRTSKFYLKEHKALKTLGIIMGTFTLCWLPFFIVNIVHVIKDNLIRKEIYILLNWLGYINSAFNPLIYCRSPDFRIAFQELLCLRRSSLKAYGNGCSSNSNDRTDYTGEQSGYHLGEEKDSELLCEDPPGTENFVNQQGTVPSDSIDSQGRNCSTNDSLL
# Sequence of Beta-2 adrenergic receptor (Bos taurus) (Q28044 whole entry, looked up): as the sequence (Q28044 whole entry) above
Kd [1] [nM],-Log KD [2],logP [3],Compound,logP [4]
3160,5.8,,CC(C)NCC(O)c1ccc(O)c(CO)c1 (centres undefined),
1070,6.27,,CC(C)NC[C@H](O)COc1ccc(O)cc1 [PRENALTEROL],
53.7,7.57,,CC(C)NCC(O)COc1ccccc1 (centres undefined),
,6.57,,CC(C)NCC(O)c1ccc(NS(C)(=O)=O)cc1 (centres undefined),
,,1.28,NC(=O)c1ccccc1O [SALICYLAMIDE],
10.2,8.29,,Cc1cc(C)cc(OCC(O)CNC(C)C)c1 (centres undefined),
470,,,CC(C)(C)NCC(O)c1ccc(O)c(C(N)=O)c1 (centres undefined),
50.1,7.6,,CC(C)NCC(O)COc1ccccc1CO (centres undefined),
,,,Oc1cccc(O)c1 [RESORCINOL],0.8
43.6,7.66,,Cc1cccc(OCC(O)CNC(C)C)c1 (centres undefined) [TOLIPROLOL],
,5.73,,CC(C)(C)NCC(O)c1cc(O)cc(O)c1 (centres undefined),
10.2,8.29,,Cc1ccccc1OCC(O)CNC(C)C (centres undefined),
2.14,8.97,,C#CCOc1ccccc1OCC(O)CNC(C)C (centres undefined),
21.9,7.96,,CC(C)NCC(O)COc1ccccc1C#N (centres undefined),
9120,,,CC(C)NCC(O)c1cc(O)cc(O)c1 (centres undefined) [METAPROTERENOL],
,,,CCCc1ccccc1,3.57
,6.58,,CC(C)(C)NCC(O)c1ccc(O)c(CO)c1 (centres undefined),
160,7.1,,CC(C)NCC(O)c1ccc2ccccc2c1 (centres undefined) [PRONETALOL],
0.63,9.2,,CCCc1ccccc1OCC(O)CNC(C)C (centres undefined),
,,,Nc1ccccc1O [QUESTIOMYCIN B],0.52
17.8,8.05,,CCC(C)c1cccc(OCC(O)CNC(C)C)c1 (centres undefined),
,,,OCc1ccccc1O [SALICYL ALCOHOL],0.73

Compound,Kd [1] [nM],-Log KD [2],logP [3],logP [4]
CNc1cc(C(O)CNC(C)(C)C)ccc1O (centres undefined),520,,,
CC(C)NCC(O)c1cc(Cl)c(N)c(Cl)c1 (centres undefined),58,7.54,,
CC(C)NCC(O)c1ccc(O)cc1 (centres undefined) [DETERENOL],4270,,,
CC(C)(C)NCC(O)c1ccc(O)cc1 (centres undefined),1260,6.2,,
CC(C)NCC(O)c1ccc([N+](=O)[O-])cc1 (centres undefined) [NIFENALOL],1320,,,
CC(C)(C)NCC(O)c1ccc(O)c(N)c1 (centres undefined),2040,5.99,,
CC(C)(C)NCC(O)c1ccccc1Cl (centres undefined) [TULOBUTEROL],130,,,
CC(C)NCC(O)c1ccc(O)c(N)c1 (centres undefined),5130,5.59,,
CC(C)NCC(O)COc1ccccc1C1CC1 (centres undefined) [PROCINOLOL],0.39,9.41,,
CC(C)(C)NCC(O)c1ccc(O)c(O)c1 (centres undefined) [COLTEROL],600,6.55,,
CC(C)NCC(O)c1cccc(O)c1 (centres undefined) [METATEROL],910,6.34,,
CC(C)(C)NCC(O)c1cc(Cl)c(O)c(Cl)c1 (centres undefined),1950,7.41,,
